This note sets out measurements from PubChem BioAssay AID1259407 (Chemical Carcinogenesis Research Information System (CCRIS), 2018).

The data set concerns CCRIS mutagenicity, Ames/micronucleus/aberration tests. Kind of data set: CCRIS mutagenicity studies.
Where [1] appears, read: Test System: AMES SALMONELLA TYPHIMURIUM, Strain/Indicator: TA100, Metabolic Activation: NONE, Method: PREINCUBATION
Setting [2] is: Test System: AMES SALMONELLA TYPHIMURIUM, Strain/Indicator: TA98, Metabolic Activation: NONE, Method: STANDARD PLATE.
Where [3] appears, read: Test System: AMES SALMONELLA TYPHIMURIUM, Strain/Indicator: TA100, Metabolic Activation: NONE, Method: STANDARD PLATE.

Calls of active or inactive are those of the source. How the calls were made is not given here.

As to `[O-][Cl+3]([O-])([O-])O`, the mutagenic call runs as follows: (Test System: AMES SALMONELLA TYPHIMURIUM, Strain/Indicator: TA98, Metabolic Activation: NONE, Method: PREINCUBATION) “inactive; negative”; (Test System: AMES SALMONELLA TYPHIMURIUM, Strain/Indicator: TA98, Metabolic Activation: RAT LIVER S-9, PHENOBARBITAL AND BETA-NAPHTHOFLAVONE, Method: PREINCUBATION) “inactive; negative”; under setting [1], “inactive; negative”; (Test System: AMES SALMONELLA TYPHIMURIUM, Strain/Indicator: TA100, Metabolic Activation: RAT LIVER S-9, PHENOBARBITAL AND BETA-NAPHTHOFLAVONE, Method: PREINCUBATION) “inactive; negative”; (Test System: AMES SALMONELLA TYPHIMURIUM, Strain/Indicator: TA1535, Metabolic Activation: NONE, Method: PREINCUBATION) “inactive; negative”; (Test System: AMES SALMONELLA TYPHIMURIUM, Strain/Indicator: TA1535, Metabolic Activation: RAT LIVER S-9, PHENOBARBITAL AND BETA-NAPHTHOFLAVONE, Method: PREINCUBATION) “inactive; negative”. Further, the mutagenic call was “inactive; negative” (Test System: AMES SALMONELLA TYPHIMURIUM, Strain/Indicator: TA1537, Metabolic Activation: NONE, Method: PREINCUBATION); “inactive; negative” (Test System: AMES SALMONELLA TYPHIMURIUM, Strain/Indicator: TA1537, Metabolic Activation: RAT LIVER S-9, PHENOBARBITAL AND BETA-NAPHTHOFLAVONE, Method: PREINCUBATION); “inactive; negative” (Test System: AMES SALMONELLA TYPHIMURIUM, Strain/Indicator: TA1538, Metabolic Activation: NONE, Method: PREINCUBATION); “inactive; negative” (Test System: AMES SALMONELLA TYPHIMURIUM, Strain/Indicator: TA1538, Metabolic Activation: RAT LIVER S-9, PHENOBARBITAL AND BETA-NAPHTHOFLAVONE, Method: PREINCUBATION); “inactive; negative” (Test System: E.COLI, Strain/Indicator: WP2UVRA, Metabolic Activation: NONE, Method: PREINCUBATION); “inactive; negative” (Test System: E.COLI, Strain/Indicator: WP2UVRA, Metabolic Activation: RAT LIVER S-9, PHENOBARBITAL AND BETA-NAPHTHOFLAVONE, Method: PREINCUBATION).

With `O[C@@H]1[C@@H]2O[C@@H]2c2c(ccc3nc4ccc5ccccc5c4cc23)[C@H]1O`, the mutagenic call reads like this: under setting [2], “active; positive”; (Test System: AMES SALMONELLA TYPHIMURIUM, Strain/Indicator: TA100, Metabolic Activation: GUINEA PIG, LIVER, S-9, 3-METHYLCHOLANTHRENE, Method: STANDARD PLATE) “active; positive”; under setting [3], “active; positive”; (Test System: CHINESE HAMSTER V-79, Strain/Indicator: V-79/6-THIOGUANINE, Metabolic Activation: NONE) “active; positive”.

Consider `CC(O)CC(=O)Nc1ccc(O)cc1` (stereo not given), for which the mutagenic call reads like this: (Test System: AMES SALMONELLA TYPHIMURIUM, Strain/Indicator: TA100, Metabolic Activation: HAMSTER, LIVER, S-9, KANECHLOR 400, Method: PREINCUBATION) “inactive; negative”; under setting [1], “inactive; negative”.

On to `c1ccc2c(c1)Cc1ccccc1-2`, for which the mutagenic call is, setting by setting: (End Point: IN VITRO CHROMOSOMAL ABERRATIONS, Test System: CHINESE HAMSTER LUNG (CHL) CELLS, Metabolic Activation: NONE) “inactive; negative”; (End Point: IN VITRO CHROMOSOMAL ABERRATIONS, Test System: CHINESE HAMSTER LUNG (CHL) CELLS, Metabolic Activation: RAT, LIVER, S-9, KC-400) “active; positive”; (End Point: IN VITRO MICRONUCLEUS, Test System: CHO CELLS, Metabolic Activation: RAT, LIVER, S-9, AROCLOR 1254) “inactive; negative”; (Test System: AMES SALMONELLA TYPHIMURIUM, Strain/Indicator: TA97, Metabolic Activation: NONE, Method: STANDARD PLATE) “inactive; negative”; (Test System: AMES SALMONELLA TYPHIMURIUM, Strain/Indicator: TA97, Metabolic Activation: RAT, LIVER, S-9, PCB, Method: STANDARD PLATE) “inactive; negative”; under setting [2], “inactive; negative”. The mutagenic call runs as follows: (Test System: AMES SALMONELLA TYPHIMURIUM, Strain/Indicator: TA98, Metabolic Activation: RAT, LIVER, S-9, PCB, Method: STANDARD PLATE) “inactive; negative”; under setting [3], “inactive; negative”; (Test System: AMES SALMONELLA TYPHIMURIUM, Strain/Indicator: TA100, Metabolic Activation: RAT, LIVER, S-9, PCB, Method: STANDARD PLATE) “inactive; negative”; (Test System: MOUSE LYMPHOMA, Strain/Indicator: L5178Y (TK+/TK-), Metabolic Activation: NONE, Method: SUSPENSION/PLATE) “active; positive”; (Test System: MOUSE LYMPHOMA, Strain/Indicator: L5178Y (TK+/TK-), Metabolic Activation: RAT, LIVER, S-9, AROCLOR 1254, Method: SUSPENSION/PLATE) “active; positive”; (Test System: UDS RAT HEPATOCYTES, Strain/Indicator: BROMODEOXYURIDINE INCORP, Metabolic Activation: NONE, Method: FLOW CYTOMETRIC ANALYSIS) “inactive; negative”.

As to `COc1c(Cl)ccc2oc3cc4c(c(OC)c3c(=O)c12)[C@@H]1C=CO[C@@H]1O4`, the mutagenic call under setting [2] is “inactive; negative”; the mutagenic call (Test System: AMES SALMONELLA TYPHIMURIUM, Strain/Indicator: TA98, Metabolic Activation: RAT, LIVER, S-9, AROCLOR 1254, Method: STANDARD PLATE) was “active; positive”; the mutagenic call under setting [3] is “active; positive”; the mutagenic call (Test System: AMES SALMONELLA TYPHIMURIUM, Strain/Indicator: TA100, Metabolic Activation: RAT, LIVER, S-9, AROCLOR 1254, Method: STANDARD PLATE) was “active; positive”.

Take `Cc1c2ccccc2cc2ccc3ccccc3c12`: the mutagenic call reads like this: (Test System: AMES SALMONELLA TYPHIMURIUM, Strain/Indicator: TA98, Method: STANDARD PLATE) “active; positive”; (Test System: AMES SALMONELLA TYPHIMURIUM, Strain/Indicator: TA100, Metabolic Activation: RAT, INTACT HEPATOCYTES, AROCLOR 1254, Method: PREINCUBATION) “active; positive”; (Test System: AMES SALMONELLA TYPHIMURIUM, Strain/Indicator: TA100, Metabolic Activation: RAT, LIVER, S-9, PHENOBARBITAL, Method: STANDARD PLATE) “active; positive”; (Test System: AMES SALMONELLA TYPHIMURIUM, Strain/Indicator: TA100, Metabolic Activation: RAT, NADPH-FORTIFIED HOMOGENIZED HEPATOCYTES, AROCLOR 1254, Method: PREINCUBATION) “active; positive”; (Test System: AMES SALMONELLA TYPHIMURIUM, Strain/Indicator: TA100, Metabolic Activation: RAT, SONICATED HEPATOCYTES, AROCLOR 1254, Method: PREINCUBATION) “active; positive”; (Test System: AMES SALMONELLA TYPHIMURIUM, Strain/Indicator: TA100, Method: STANDARD PLATE) “active; positive”.
